Results as given in ChEMBL document CHEMBL1649339, “Abietane and C20-norabietane diterpenes from the stem bark of Fraxinus sieboldiana and their biological activities” (J Nat Prod, 2010).

How the values were obtained:
[1] = system: A549; test: Cytotoxicity against human A549 cells after 24 hrs by MTT assay; assay type: functional, cell-based; conditions: A549, 24 h
[2] = system: BGC-823; test: Cytotoxicity against human BGC823 cells after 24 hrs by MTT assay; assay type: functional, cell-based; conditions: BGC-823, 24 h
[3] = system: Bel-7402; test: Cytotoxicity against human Bel7402 cells after 24 hrs by MTT assay; assay type: functional, cell-based; conditions: Bel-7402, 24 h
[4] = system: A2780; test: cells; conditions: Homo sapiens, A2780, 24 h
Description: Cytotoxicity against human A2780 cells after 24 hrs by MTT assay

[5] = system: HCT-8; test: Cytotoxicity against human HCT8 cells after 24 hrs by MTT assay; assay type: functional, cell-based; conditions: HCT-8, 24 h
[6] = Antiinflammatory activity in PAF-induced rat Polymorphonuclear leukocyte assessed as inhibition of beta-glucuronidase release at 10^-5 M; assay type: functional
[7] = system: Influenza A virus; test: microbe, parasite or virus in culture; assay type: functional, organism-based; conditions: HEK-293T

SMILES | IC50 [1] [µM] | IC50 [2] [µM] | IC50 [3] [µM] | IC50 [4] [µM] | IC50 [5] [µM] | inhibition at 10 µM [6] [%] | IC50 [7] [µM]
CO[C@H]1OC[C@@]2(C)CCC[C@@]13c1cc(O)c(C(C)C)cc1CC[C@@H]23 | > 10 | > 10 | > 10 | > 10 | > 10 |  | 
CC(C)c1cc2c(cc1O)[C@H]1CCCC(C)(C)[C@@H]1CC2=O | > 10 | > 10 | > 10 | > 10 | > 10 | 56.1 | 
CC(C)c1cc2c(cc1O)[C@]13CCC[C@](C)(CO[C@H]1O)[C@@H]3CC2 | > 10 | > 10 | > 10 | > 10 | > 10 |  | 
CC(C)c1cc2ccc3c(c2cc1O)C(=O)CCC3(C)C | > 10 | > 10 | > 10 | > 10 | > 10 |  | 
CC(C)c1cc2c(cc1O)[C@@]13CCCC(C)(C)[C@@H]1[C@H](OC3=O)C2=O | > 10 | > 10 | > 10 | > 10 | > 10 |  | 
CC(C)c1cc2c(cc1O)[C@@]1(O)CCCC(C)(C)[C@@H]1CC2=O | > 10 | > 10 | > 10 | > 10 | > 10 |  | 
CCO[C@@H]1OC[C@@]2(C)CCC[C@@]13c1cc(O)c(C(C)C)cc1C(=O)C[C@@H]23 | > 10 | > 10 | > 10 | > 10 | > 10 |  | 
CC(C)c1cc2c(cc1O)C1=C(CC2)C(C)(C)CC[C@H]1O | > 10 | > 10 | > 10 | > 10 | > 10 |  | 
CC[C@@]1(O)C(=O)OCc2c1cc1n(c2=O)Cc2cc3ccccc3nc2-1 [CAMPTOTHECIN] | 3.6 |  |  | 0.2 |  |  | 
CC(C)c1cc2c(cc1O)[C@]13CCC[C@](C)(CO[C@@H]1O)[C@@H]3CC2 | > 10 | > 10 | > 10 | > 10 | > 10 |  | 
CO[C@@H]1OC[C@@]2(C)CCC[C@@]13c1cc(O)c(C(C)C)cc1CC[C@@H]23 | > 10 | > 10 | > 10 | > 10 | > 10 |  | 
CC(C)c1cc2c(cc1O)[C@@]13CCCC(C)(C)[C@@H]1[C@H](OC3=O)[C@H]2O | > 10 | > 10 | > 10 | > 10 | > 10 |  | 
CC(C)c1cc2c(cc1O)[C@@]1(O)CCC[C@](C)(CO)[C@@H]1CC2=O | > 10 | > 10 | > 10 | > 10 | > 10 |  | 
CC(C)c1ccc2c(c1)C(=O)C[C@H]1C(C)(C)CCC[C@]21C | > 10 | > 10 | > 10 | > 10 | > 10 |  | 4.8
CC(C)C1=C[C@]2(O)CC[C@H]3[C@]4(C)CCC[C@]3(C(=O)OC4)C2=CC1=O | > 10 | > 10 | > 10 | > 10 | > 10 |  | 
CC(C)c1cc2c(cc1O)[C@]13CCC[C@](C)(COC1=O)[C@@H]3CC2 | > 10 | > 10 | > 10 | > 10 | > 10 |  | 
CC(C)c1cc2c(cc1O)[C@@]1(C=O)CCCC(C)(C)[C@@H]1CC2 | > 10 | > 10 | > 10 |  | > 10 | 65.9 | 
CCO[C@@H]1OC[C@@]2(C)CCC[C@@]13c1cc(O)c(C(C)C)cc1CC[C@@H]23 | > 10 | > 10 | > 10 | > 10 | > 10 |  | 
CC(C)c1cc2c(cc1O)C1=CC(=O)CC(C)(C)[C@@H]1CC2 | > 10 | > 10 | > 10 | > 10 | > 10 |  | 
CC(C)c1cc2c(cc1O)[C@@]13CCCC(C)(C)[C@@H]1[C@H](OC3=O)[C@@H]2O | 6 | > 10 | > 10 | > 10 | > 10 |  | 
CCO[C@@H]1C[C@@H]2C(=CC(=O)CC2(C)C)c2cc(O)c(C(C)C)cc21 | > 10 | > 10 | > 10 | > 10 | > 10 |  | 
CC(C)C1=C[C@]23CC[C@H]4[C@]5(C)CCC[C@@]4(C2=CC1=O)[C@@H](OC5)O3 | > 10 | > 10 | > 10 | > 10 | > 10 |  | 
CC(C)c1cc2c(cc1O)[C@]13CCC[C@]4(C)CO[C@@H]1O[C@H]2C[C@@H]43 | > 10 | > 10 | > 10 | > 10 | > 10 | 59.7 | 
CC(C)C1=C[C@]23O[C@H]2[C@H]2OC(=O)[C@@]4(CCCC(C)(C)[C@H]24)C3=CC1=O | > 10 | > 10 | > 10 | 1.7 | > 10 |  | 
